The text below walks through data of patent publication US9216179B2, “Treatment of gout and hyperuricemia” (ARDEA BIOSCIENCES, INC., priority 2010, dated 2015).

Series [1] relates to patients with gout. Kind of series: Phase II gout dose response study, Lesinurad versus placebo (incidence of gout flares). It counts as in vivo, human. On the procedure:
Purpose: To compare the proportion of subjects whose serum urate (sUA) level is <6.0 mg/dL after 28 days of dosing by treatment group.
Official Title: Randomized, Double-Blind, Multicenter, Placebo-Controlled, Safety and Efficacy Study of Lesinurad Versus Placebo in the Treatment of Hyperuricemia in Patients With Gout
Experimental Dosage Form: 200 mg capsule of Lesinurad, with appropriate pharmaceutically acceptable excipients
Primary Outcome Measures: Compare the proportion of subjects whose serum urate (sUA) level is <6.0 mg/dL after 28 days of dosing by treatment group.
Secondary Outcome Measures: • Evaluate the proportion of subjects with sUA levels <6.0 mg/dL at each weekly study visit. • Evaluate absolute and percent reduction from baseline in sUA levels at each weekly study visit. • Evaluate the percent change in 24-hr urine urate level (excretion) from baseline to Day 28. • Evaluate the incidence of gout flares. • Evaluate the safety and tolerability of Lesinurad in subjects with gout.
Inclusion Criteria: • Male or post-menopausal or surgically sterile female. • Hyperuricemic (i.e., screening sUA ≧8 mg/dL). • Meets criteria for the diagnosis of gout as per the American Rheumatism Association (ARA) Criteria for the Classification of Acute Arthritis of Primary Gout (see Appendix B). • Willing and able to give informed consent and adhere to visit/protocol schedules (informed consent must be given before the first study procedure is performed).
Results: Incidence of gout flares are presented in Table 2 below indicating the majority of flares occurred in the first week when patients were receiving 200 mg QD (6/10 total flares on drug). Few additional flares occurred as dose increased, even with greater decrease in sUA. Duration of flares is shorter at higher doses, the opposite of what would be expected with greater reduction in sUA.

In series [2] the test system is Patients. Kind of series: Example 4 A: allopurinol 300 mg QD for 1 week followed by compound of Formula I, serum uric acid. It counts as in vivo, human. On the procedure: A: Patients received allopurinol 300 mg QD for 1 week followed by a compound of Formula I. A compound of Formula I (200 mg) reduced serum uric acid levels 9% beyond the reduction observed for allopurinol alone. Titration up to 400 mg of a compound of Formula I provided further reduction of serum uric acid levels by 6%. The combination of a compound of Formula I (400 mg) and allopurinol provided 100% response (i.e., sUA <6 mg/dL) and an 80% sUA reduction below 5 mg/dL. These responses are illustrated in FIG. 6.

For series [3], the system named is gout patients with sUA greater than 8 mg/dL. Kind of series: Example 6: open-label clinical pharmacology study, combination with febuxostat. Conditions: for increases in serum creatinine (Grade): human, in vivo. On the procedure:
Also provided herein in certain embodiments is an open-label, clinical pharmacology study including 2 cohorts of gout patients with sUA greater than 8 mg/dL on no urate-lowering therapy. In some embodiments, patients received colchicine beginning one week prior to baseline and continuing for 5 weeks for flare prophylaxis. In other embodiments, the first cohort of patients in the study consisted of gout patients with a median baseline sUA of 9.2 mg/dL who were administered 40 mg febuxostat for the first week, 40 mg febuxostat in combination with 400 mg of a compound of formula I for the second week, and then 40 mg febuxostat in combination with 600 mg of a compound of formula I for the third week. […] In some embodiments, less than 40 mg, greater than 40 mg, less than 80 mg, greater than 80 mg, or any suitable amount of febuxostat was administered.
This 21-patient, open-label, clinical pharmacology study included 2 cohorts of gout patients with sUA greater than 8 mg/dL on no urate-lowering therapy. All patients received colchicine beginning one week prior to baseline and continuing for 5 weeks for flare prophylaxis.

The test system is the same in series [4]. Kind of series: Example 7: open-label clinical pharmacology study, combination with allopurinol. It counts as in vivo, human. On the procedure: This 20-patient, open-label clinical pharmacology study included 2 cohorts of gout patients with sUA greater than 8 mg/dL on no urate-lowering therapy who began colchicine dosing one week prior to baseline and continued for 5 weeks. […] Elevations in CK and rhabdomyolysis are known side effects of colchicine.

In series [5] the test system is gout patients with elevated uric acid levels. Conditions: for serious adverse events or deaths: Phase 2b study, 28 days.
Protocol: In some embodiments, for patients randomized to receive 400 mg a compound of formula I and 600 mg of a compound of formula I, a daily dose of compound of formula I was escalated weekly in increments of 200 mg/day.
Series [6] concerns Patients. Conditions: Allopurinol Alone. On the procedure:
B: Patients received allopurinol alone for one week. For the second week, Panel 1 received a compound of Formula I (400 mg) and Panel 2 received a compound of Formula I (600 mg) in combination with allopurinol 300 mg.

Series [7] concerns gout patients. To be noted: controlled trials; cited from earlier work.
Series [8] concerns individuals treated with the drug. To be noted: in vivo; cited from earlier work.
In series [9] the test system is individuals treated with probenecid. To be noted: in vivo; cited from earlier work.
In series [10] the test system is IL-1. Kind of series: IL-1 release/production after stimulation (FIG. 1, FIG. 3). To be noted: FIG. 3.
Series [11] relates to TNF-α. Kind of series: TNF-α production (FIG. 2). Conditions: FIG. 2, 6 hour time point.
The mark [12] stands for this setting: Cohort 1, allopurinol 300 mg alone.
Setting [13] is: Cohort 2, allopurinol 300 mg alone.
[14] abbreviates: Placebo qd + allopurinol, sUA <6 mg/dL after 4 weeks.
The mark [15] stands for this setting: Cohort 1, febuxostat 40 mg alone.
Where [16] appears, read: Cohort 2, febuxostat 80 mg alone.

For the molecule `O=C(O)CSc1nnc(Br)n1-c1ccc(C2CC2)c2ccccc12` [Formula I, 2-(5-bromo-4-(4-cyclopropylnaphthalen-1-yl)-4H-1,2,4-triazol-3-ylthio)acetic acid], the “% of patients with Flares by Dose at Time of Flare” value is on record as 6% (6/96) in series [1] (200 mg at time of flare), 2% (1/65) in [1] (400 mg at time of flare) and 9% (3/32) in series [1] (600 mg at time of flare). Further, the results for the “Mean Duration of Flares (by Dose at Time of Flare)” value in series [1] (200 mg at time of flare), in series [1] (400 mg at time of flare) and in series [1] (600 mg at time of flare) were 4 days, 2 days and 1.7 days, respectively. The “Mean Duration of Flares” value in series [1] (Randomized Dose Group 200 mg) is 4 days; in series [1] (Randomized Dose Group 400 mg) it was 3.8 days; in series [1] (Randomized Dose Group 600 mg), 1.5 days. Also, the “% Patients with Flares” value in series [1] (Randomized Dose Group 200 mg qd for 28 days) was determined as 6%; in series [1] (Randomized Dose Group 400 mg (200 mg 7 days, 400 mg 21 days)), 12%; in [1] (Randomized Dose Group 600 mg (200 mg 7 days, 400 mg 7 days, 600 mg 14 days)), 13%. The “reduction of serum uric acid levels beyond the reduction observed for allopurinol alone” value in series [2] (Formula I 200 mg after allopurinol 300 mg QD for 1 week) came out at 9%. Also, in series [2] (titration up to 400 mg), the “further reduction of serum uric acid levels” value came to 6%. For the same molecule, the “additional sUA reduction compared to febuxostat alone” value was 39% in series [3] (addition of 600 mg to 40 mg febuxostat) and 51% in series [3] (addition of 600 mg to 80 mg febuxostat). For the same molecule, in [3], the “increases in serum creatinine (Grade)” value was “no Grade 2 or higher increases”. Also, the “Percent patients <5 mg/dL” value in [4] (Cohort 1, 400 mg alone) came to 0%; in series [4] (Cohort 2, 600 mg alone), 33%. Also, the “Percent sUA change at trough (median, from baseline)” value (from here on “Percent sUA change at trough”) in series [4] (Cohort 1, 400 mg alone) is given as −28%; in series [4] (Cohort 2, 600 mg alone), −39%. Besides, the “Percent sUA change intraday (median, from baseline)” value (“Percent sUA change intraday” below) is −44% in [4] (Cohort 1, 400 mg alone) and −54% in [4] (Cohort 2, 600 mg alone). The “Response rate (<6 mg/dL)” value in series [4] (Cohort 1, 400 mg alone) is 20%; in series [4] (Cohort 2, 600 mg alone, listed as 2-(5-bromo-4-(4-cyclopropylnaphthalen-1-yl)-4H-1,2,4-triazol-3-ylthio)acetate), 67%. Moreover, the “serious adverse events or discontinuations considered possibly related” value in series [4] (human, in vivo) was “no serious adverse events or discontinuations”. Also, the “serious adverse events or deaths” value in series [5] is “no serious adverse events or deaths”.
In the case of `Oc1ncnc2[nH]ncc12` [allopurinol], in [6], the “% Patients <4 mg/dL” value is reported as 0%, the “% Patients <5 mg/dL” value turned out to be 9%, the “Response: % Patients <6 mg/dL” value came to 63% and the “sUA Mean % Reduction” value stood at 32%. Also, the “patients achieving target sUA levels below 6 mg/dL” value in [4] (300 mg allopurinol alone) is 20%. In [4] (Cohort 1 (median baseline 9.8 mg/dL), allopurinol 300 mg alone), the “Response rate (<6 mg/dL)” value amounted to 10%. In [4] (setting [12]), the “Percent patients <5 mg/dL” value stood at 5%; the “Percent sUA change at trough” value is −31%; the “Percent sUA change intraday” value was −38%. Moreover, the “Response rate (<6 mg/dL)” value in series [4] (Cohort 2 (median baseline 9.1 mg/dL), allopurinol 300 mg alone) is listed as 30%. Moreover, in series [4] (setting [13]), the “Percent patients <5 mg/dL” value is reported as 5%; the “Percent sUA change at trough” value is reported as −27%; the “Percent sUA change intraday” value is listed as −35%. Further, the “serious adverse events or deaths” value in series [5] is listed as “fatal myocardial infarction”. In addition, in series [5] (Placebo qd + allopurinol), the “Mean Change in Serum Urate at Week 4 vs. Baseline on Allopurinol Alone” value is “+3%”. Besides, in [5] (setting [14]), the “Response Rate (ITT Analysis)” value is listed as 25% and the “Response Rate (LOCF Analysis)” value came out at 29%. The “patients who discontinued treatment due to an adverse event” value in series [5] (human, in vivo) is on record as “three”. The “gout patients responding adequately (sUA less than 6 mg/dL)” value in series [7] is given as 30-40%. Further, the “incidence of side effects, of all individuals treated” value in [8] is given as 20%.
As to `COc1cc2c(c(OC)c1OC)-c1ccc(OC)c(=O)cc1[C@@H](NC(C)=O)CC2` [colchicine], the “increases in serum creatinine (Grade)” value in series [3] is “one Grade 2 serum creatinine increase”.
In the case of `Cc1nc(-c2ccc(OCC(C)C)c(C#N)c2)sc1C(=O)O` [febuxostat], the “Response rate (<6 mg/dL)” value came out at 67% in series [3] (Cohort 1 (median baseline 9.2 mg/dL), febuxostat 40 mg alone); 67% in series [3] (Cohort 1 (median baseline 9.2 mg/dL), febuxostat 40 mg alone, listed as Febuxostat); 56% in series [3] (Cohort 2 (median baseline […]), febuxostat 80 mg alone); 56% in series [3] (Cohort 2 (median baseline […]), febuxostat 80 mg alone, listed as Febuxostat). The “Percent patients <4 mg/dL” value in series [3] (setting [15]) and in series [3] (setting [16]) was 0% each time. The “Percent sUA change at trough” value in series [3] (setting [15]) is recorded as −35%; in [3] (setting [16]), −47%. Further, the “Percent sUA change intraday” value in [3] (setting [15]) is −44%; in series [3] (setting [16]), −52%. Besides, in series [3] (either dose of febuxostat alone), the “patients achieving sUA levels below 4 mg/dL or below 3 mg/dL” value is on record as “No patient”.
For the molecule `CCCN(CCC)S(=O)(=O)c1ccc(C(=O)O)cc1` [probenecid], in series [9], the individuals developing intolerance result is on record as “one-third” and the “individuals failing to achieve reduction of serum uric acid levels <6 mg/dL” value is 25-50%.
In the case of rilonacept, the IL-1 production result in [10] is listed as “does not reduce”. For the same molecule, the “production of TNF-α” value in series [11] is given as “inhibits”.
